pIC50: −log10 of the molar value. Values joined by “and” are separate entries in the source; they are usually repeats but may differ in a detail not shown here. Identical values can stand only once.

What is called pIC50 is the negative decadic logarithm of the IC50, by convention in mol/L.

In the experiment the target is T1, CD73 (Homo sapiens, UniProt P21589).
T1 sequence (P21589 27-549): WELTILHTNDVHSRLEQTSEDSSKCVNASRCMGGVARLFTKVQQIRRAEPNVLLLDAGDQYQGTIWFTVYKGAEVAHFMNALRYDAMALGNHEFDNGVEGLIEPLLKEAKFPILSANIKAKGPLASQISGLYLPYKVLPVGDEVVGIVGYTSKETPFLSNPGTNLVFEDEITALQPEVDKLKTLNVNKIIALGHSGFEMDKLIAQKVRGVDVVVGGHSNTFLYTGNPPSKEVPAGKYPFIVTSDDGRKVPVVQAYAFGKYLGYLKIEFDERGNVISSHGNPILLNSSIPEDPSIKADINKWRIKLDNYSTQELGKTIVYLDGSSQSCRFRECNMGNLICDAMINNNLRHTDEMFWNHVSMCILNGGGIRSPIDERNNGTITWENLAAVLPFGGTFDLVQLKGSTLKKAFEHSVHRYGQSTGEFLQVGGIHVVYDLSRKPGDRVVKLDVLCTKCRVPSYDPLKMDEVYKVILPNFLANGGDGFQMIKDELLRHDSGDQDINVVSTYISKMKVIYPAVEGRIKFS
The experiment can be described thus: Example A1: Biochemical Assay (CD73 inhibition, Malachite Green detection of AMP hydrolysis). Conditions: CD73 0.3208 nM, AMP 15 μM, Tris-HCl pH 7.4, Malachite Green, absorbance 620 nm; read-out: Biochemical IC50. As for the experimental part:
Example A1: Biochemical Assay
Assay Reaction Conditions
• Assay Volume: 70 μl • Reaction Volume: 50 μl • CD73: 0.3208 nM • AMP: 15 μM • Assay Buffer: 2 5 mM Tris-HCL, pH 7.4, 0.01% Brij-35, 0.01% BSA, 5 mM MgCl2 Assay Procedure:
Made dose titration of testing compounds in assay buffer, 10 points ½ log titrations in duplicates starting at 100 μM.
Added 25 μl of CD73 to each well for a final concentration of […].
Incubated at RT for 15 min.
Added 25 μl of AMP to each well for a final concentration of 15 μM.
Incubated at RT for 10 min.
Added 10 μl of Malachite Green Reagent A, incubate at RT for 10 min.
Added 10 μl of Malachite Green Reagent B, incubate at RT for 45 min.
Read the Absorbance on Envision plate reader using excitation filter: Cy5 […].
The ability of the compounds disclosed herein to inhibit CD73 activity was quantified and the respective IC50 values were determined. Table 1 provides the biochemical IC50 values of compounds disclosed herein.
With `O=P(O)(O)CP(=O)(O)OC[C@H]1OC(n2nnc3c(NC4CCc5ccccc54)nc(Cl)nc32)[C@H](O)[C@@H]1O` (stereo in doubt) [Example 31, (((((2R,3S,4R,5S)-5-(5-chloro-7-(((R)-2,3-dihydro-1H-inden-1-yl)amino)-3H-[1,2,3]triazolo[4,5-d]pyrimidin-3-yl)-3,4-dihydroxytetrahydrofuran-2-yl)methoxy)(hydroxy)phosphoryl)methyl) phosphonic acid], the pIC50 is greater than 7.00.
Regarding `O=P(O)(O)CP(=O)(O)OC[C@H]1CC(n2nnc3c(NC4CCc5ccccc54)nc(Cl)nc32)[C@H](O)[C@@H]1O` (stereo in doubt) [Example 35, (((((1R,2R,3S,4S)-4-(5-chloro-7-(((S)-2,3-dihydro-1H-inden-1-yl)amino)-3H-[1,2,3]triazolo[4,5-d]pyrimidin-3-yl)-2,3-dihydroxycyclopentyl)methoxy) (hydroxy)phosphoryl)methyl)phosphonic acid], the pIC50 was > 7.00 and 6.00 to 7.00.
`O=P(O)(O)CP(=O)(O)OC[C@H]1O[C@@H](n2nnc3c(NCc4ccccc4)nc(Cl)nc32)[C@H](O)[C@@H]1O` [Example 1, (((((2R,3S,4R,5R)-5-(7-(Benzylamino)-5-chloro-3H-[1,2,3]triazolo[4,5-d]pyrimidin-3-yl)-3,4-dihydroxytetrahydrofuran-2-yl)methoxy)(hydroxy)phosphoryl)methyl)phosphonic acid]: the pIC50 was 6.00 to 7.00.
As for `O=P(O)(O)CP(=O)(O)OC[C@H]1C[C@@H](n2nnc3c(NCc4ccccc4Cl)nc(Cl)nc32)[C@H](O)[C@@H]1O` [Example 2, (((((1R,2R,3S,4R)-4-(5-chloro-7-((2-chlorobenzyl)amino)-3H-[1,2,3]triazolo[4,5-d]pyrimidin-3-yl)-2,3-dihydroxycyclopentyl)methoxy)(hydroxy)phosphoryl)methyl)phosphonic acid], the pIC50 was 6.00 to 7.00.
With `O=P(O)(O)CP(=O)(O)OC[C@H]1O[C@@H](n2nnc3c(NC[C@H]4CCOC4)nc(Cl)nc32)[C@H](O)[C@@H]1O` [Example 3, (((((2R,3S,4R,5R)-5-(5-chloro-7-((((R)-tetrahydrofuran-3-yl)methyl)amino)-3H-[1,2,3]triazolo[4,5-d]pyrimidin-3-yl)-3,4-dihydroxytetrahydrofuran-2-yl)methoxy)(hydroxy)phosphoryl)methyl) phosphonic acid], the pIC50 was 6.00 to 7.00.
With `Nc1nc(Cl)nc2c1nnn2[C@@H]1O[C@H](COP(=O)(O)CP(=O)(O)O)[C@@H](O)[C@H]1O` [Example 4, (((((2R,3S,4R,5R)-5-(7-amino-5-chloro-3H-[1,2,3]triazolo[4,5-d]pyrimidin-3-yl)-3,4-dihydroxytetrahydrofuran-2-yl)methoxy)(hydroxy)phosphoryl)methyl) phosphonic acid], the negative logarithm of the IC50 (pIC50) is less than 6.00.
As to `O=P(O)(O)CP(=O)(O)OC[C@H]1O[C@@H](n2nnc3c(NCC4CC4)nc(Cl)nc32)[C@H](O)[C@@H]1O` [Example 5, (((((2R,3S,4R,5R)-5-(5-chloro-7-((cyclopropylmethyl)amino)-3H-[1,2,3]triazolo[4,5-d]pyrimidin-3-yl)-3,4-dihydroxytetrahydrofuran-2-yl)methoxy)(hydroxy)phosphoryl)methyl) phosphonic acid], the negative-log IC50 (pIC50) is 6.00 to 7.00.
In the case of `O=P(O)(O)CP(=O)(O)OC[C@H]1O[C@@H](n2nnc3c(NCc4ccccc4Cl)nc(Cl)nc32)[C@H](O)[C@@H]1O` [Example 6, (((((2R,3S,4R,5R)-5-(5-chloro-7-((2-chlorobenzyl)amino)-3H-[1,2,3]triazolo[4,5-d]pyrimidin-3-yl)-3,4-dihydroxytetrahydrofuran-2-yl)methoxy)(hydroxy)phosphoryl)methyl) phosphonic acid], the pIC50 was greater than 7.00.
Regarding `O=P(O)(O)CP(=O)(O)OC[C@H]1O[C@@H](n2nnc3c(NCc4ccc(Cl)cc4)nc(Cl)nc32)[C@H](O)[C@@H]1O` [Example 7, (((((2R,3S,4R,5R)-5-(5-chloro-7-((4-chlorobenzyl)amino)-3H-[1,2,3]triazolo[4,5-d]pyrimidin-3-yl)-3,4-dihydroxytetrahydrofuran-2-yl)methoxy)(hydroxy)phosphoryl)methyl) phosphonic acid], the pIC50 was greater than 7.00.
Turning to `C[C@H](Nc1nc(Cl)nc2c1nnn2[C@@H]1O[C@H](COP(=O)(O)CP(=O)(O)O)[C@@H](O)[C@H]1O)c1ccccc1` [Example 8, (((((2R,3S,4R,5R)-5-(5-chloro-7-(((S)-1-phenylethyl)amino)-3H-[1,2,3]triazolo[4,5-d]pyrimidin-3-yl)-3,4-dihydroxytetrahydrofuran-2-yl)methoxy)(hydroxy)phosphoryl)methyl) phosphonic acid], the negative logarithm of the IC50 (pIC50) is greater than 7.00.
With `C[C@H](Nc1nc(Cl)nc2c1nnn2[C@@H]1O[C@H](COP(=O)(O)CP(=O)(O)O)[C@@H](O)[C@H]1O)c1ccccc1Cl` [Example 9, (((((2R,3S,4R,5R)-5-(5-chloro-7-(((S)-1-(2-chlorophenyl)ethyl)amino)-3H-[1,2,3]triazolo[4,5-d]pyrimidin-3-yl)-3,4-dihydroxytetrahydrofuran-2-yl)methoxy)(hydroxy)phosphoryl)methyl) phosphonic acid], the pIC50 is greater than 7.00.
On to `O=P(O)(O)CP(=O)(O)OC[C@H]1O[C@@H](n2nnc3c(N4CCCC[C@@H]4c4ccccc4)nc(Cl)nc32)[C@H](O)[C@@H]1O` [Example 10, (((((2R,3S,4R,5R)-5-(5-chloro-7-((R)-2-phenylpiperidin-1-yl)-3H-[1,2,3]triazolo[4,5-d]pyrimidin-3-yl)-3,4-dihydroxytetrahydrofuran-2-yl)methoxy)(hydroxy)phosphoryl)methyl) phosphonic acid], for which the pIC50 is 6.00 to 7.00.
Regarding `O=P(O)(O)CP(=O)(O)OC[C@H]1O[C@@H](n2nnc3c(N4CCC[C@H]4c4ccccc4)nc(Cl)nc32)[C@H](O)[C@@H]1O` [Example 11, (((((2R,3S,4R,5R)-5-(5-chloro-7-((S)-2-phenylpyrrolidin-1-yl)-3H-[1,2,3]triazolo[4,5-d]pyrimidin-3-yl)-3,4-dihydroxytetrahydrofuran-2-yl)methoxy)(hydroxy)phosphoryl)methyl) phosphonic acid], the pIC50 is 6.00 to 7.00.
Consider `C[C@@H](c1ccccc1Cl)N(C)c1nc(Cl)nc2c1nnn2[C@@H]1O[C@H](COP(=O)(O)CP(=O)(O)O)[C@@H](O)[C@H]1O` [Example 12, (((((2R,3S,4R,5R)-5-(5-chloro-7-(((S)-1-(2-chlorophenyl)ethyl)(methyl)amino)-3H-[1,2,3]triazolo[4,5-d]pyrimidin-3-yl)-3,4-dihydroxytetrahydrofuran-2-yl)methoxy)(hydroxy)phosphoryl)methyl) phosphonic acid], for which the pIC50 is greater than 7.00.
The same measure for `C[C@@H](c1ccccc1)N(C)c1nc(Cl)nc2c1nnn2[C@@H]1O[C@H](COP(=O)(O)CP(=O)(O)O)[C@@H](O)[C@H]1O` [Example 13, (((((2R,3S,4R,5R)-5-(5-chloro-7-(methyl((S)-1-phenylethyl)amino)-3H-[1,2,3]triazolo[4,5-d]pyrimidin-3-yl)-3,4-dihydroxytetrahydrofuran-2-yl)methoxy)(hydroxy)phosphoryl)methyl) phosphonic acid]: greater than 7.00; for `O=P(O)(O)CP(=O)(O)OC[C@H]1O[C@@H](n2nnc3c(NCc4cccc(Cl)c4)nc(Cl)nc32)[C@H](O)[C@@H]1O` [Example 14, (((((2R,3S,4R,5R)-5-(5-chloro-7-((3-chlorobenzyl)amino)-3H-[1,2,3]triazolo[4,5-d]pyrimidin-3-yl)-3,4-dihydroxytetrahydrofuran-2-yl)methoxy)(hydroxy)phosphoryl)methyl) phosphonic acid]: greater than 7.00; for `CN(Cc1ccccc1)c1nc(Cl)nc2c1nnn2[C@@H]1O[C@H](COP(=O)(O)CP(=O)(O)O)[C@@H](O)[C@H]1O` [Example 15, (((((2R,3S,4R,5R)-5-(7-(benzyl(methyl)amino)-5-chloro-3H-[1,2,3]triazolo[4,5-d]pyrimidin-3-yl)-3,4-dihydroxytetrahydrofuran-2-yl)methoxy)(hydroxy)phosphoryl)methyl) phosphonic acid]: greater than 7.00.
The same measure for `O=P(O)(O)CP(=O)(O)OC[C@H]1O[C@@H](n2nnc3c(N4CCCC[C@H]4c4ccccc4)nc(Cl)nc32)[C@H](O)[C@@H]1O` [Example 16, (((((2R,3S,4R,5R)-5-(5-chloro-7-((S)-2-phenylpiperidin-1-yl)-3H-[1,2,3]triazolo[4,5-d]pyrimidin-3-yl)-3,4-dihydroxytetrahydrofuran-2-yl)methoxy)(hydroxy)phosphoryl)methyl) phosphonic acid]: greater than 7.00.

Source of the values: US11576922B2, “CD73 inhibitors” (ORIC Pharmaceuticals, Inc., priority 2017, dated 2023).
